This is an account of results in ChEMBL document CHEMBL1201862, “PubChem BioAssay data set” (2004).

Some test systems named below: CCRF-CEM; HCT-116; K562; NCI-H226; SF-268; SK-OV-3; OVCAR-5; MDA-N; LOX IMVI; KM12; MCF7; MDA-MB-231; 786-0; SF-539; Malme-3M; U-251; HT-29; SK-MEL-5; MDA-MB-435; T47D.
What all share (experiment): NCI tumour cell line growth inhibition, 48 h

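How tested: cells in 96-well plates exposed to compound for 48 hours at five concentrations. GI50 is the concentration that inhibits growth by half.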 Active and inactive are the calls of the source. Rule as the data show it: active = GI50 up to about 1.1 µM and inactive = higher. Some results are limits rather than exact numbers.

For the molecule `CCOc1cc2c(OCc3ccccc3)cc3c4cc(OC)c(OC)cc4c[n+](C)c3c2cc1OC`, the GI50 in the assay with CCRF-CEM is 0.494 µM (active); in the assay with HCT-116, 1.56 µM (inactive); with K562, 1.18 µM (inactive); with NCI-H226, 1.5 µM (inactive); in the assay on SF-268, 0.492 µM (active); in the assay on SK-OV-3, 3.02 µM (inactive). Besides, the GI50 in the assay with OVCAR-5 was 7.13 µM (inactive); with MDA-N, 0.857 µM (active); with LOX IMVI it was 2.07 µM (inactive); with KM12, 1.15 µM (inactive); with MCF7 it was 0.671 µM (active); in the assay on MDA-MB-231, 2.29 µM (inactive). Further, the GI50 was 2.74 µM (inactive) with 786-0; 1.3 µM (inactive) in the assay on SF-539; 0.986 µM (active) with Malme-3M; 0.601 µM (active) in the assay on U-251; 2.66 µM (inactive) with HT-29; 1.38 µM (inactive) in the assay with SK-MEL-5. The GI50 in the assay on MDA-MB-435 is 0.789 µM (active); in the assay on T47D, 0.446 µM (active).

For the molecule `Cc1nc(C(N)=S)sc1C(=O)CC(=O)C(=O)Nc1cccc(Cl)c1C`, the GI50 in the assay with CCRF-CEM, in the assay with HCT-116, in the assay on K562, in the assay on NCI-H226, with SF-268 and with SK-OV-3 was > 100 µM (inactive) throughout. Besides, the GI50 in the assay on OVCAR-5, in the assay on MDA-N, in the assay on LOX IMVI, in the assay with KM12, with MCF7 and in the assay with MDA-MB-231 was > 100 µM (inactive) throughout. In addition, the GI50 in the assay on 786-0, in the assay on SF-539, in the assay on Malme-3M, with U-251, in the assay on HT-29 and with SK-MEL-5 was > 100 µM (inactive) in each case. Besides, the GI50 in the assay with MDA-MB-435 and in the assay on T47D was > 100 µM (inactive) throughout.

Consider `O=C1/C(=N\NC(=S)NC2CCCCC2)c2cc([N+](=O)[O-])ccc2N1CN1CCOCC1`, for which the GI50 in the assay with CCRF-CEM is 0.382 µM (active); in the assay on HCT-116 it was 3.57 µM (inactive); in the assay on K562, 3.61 µM (inactive); in the assay on NCI-H226 it was 19.1 µM (inactive); with SF-268, 4.35 µM (inactive); with SK-OV-3 it was 13 µM (inactive). The GI50 was 11.3 µM (inactive) in the assay on OVCAR-5; 6.08 µM (inactive) with MDA-N; 5.04 µM (inactive) in the assay with LOX IMVI; 4.81 µM (inactive) in the assay on KM12; 4.06 µM (inactive) in the assay with MCF7; 15.8 µM (inactive) in the assay on MDA-MB-231. In addition, the GI50 in the assay on 786-0 is 5.52 µM (inactive); in the assay with SF-539, 11.4 µM (inactive); in the assay on Malme-3M, 11.4 µM (inactive); with U-251, 4.52 µM (inactive); in the assay on HT-29, 4.48 µM (inactive); in the assay on SK-MEL-5, 3.16 µM (inactive). In addition, the GI50 was 6.79 µM (inactive) with MDA-MB-435 and 2.64 µM (inactive) in the assay on T47D.

`O=c1[nH]c2ccccc2c2oc(-c3ccccc3)nc12`: the GI50 in the assay on CCRF-CEM is 18.4 µM (inactive); in the assay on HCT-116, 24 µM (inactive); with K562, 36.1 µM (inactive); in the assay with NCI-H226, 88.9 µM (inactive); in the assay on SF-268 it was 21.3 µM (inactive); in the assay on SK-OV-3, 37.2 µM (inactive). Also, the GI50 in the assay on OVCAR-5 is > 100 µM (inactive); in the assay on MDA-N, 20.2 µM (inactive); in the assay with LOX IMVI, 21.3 µM (inactive); with KM12, 50.5 µM (inactive); in the assay with MCF7 it was 44.8 µM (inactive); with MDA-MB-231 it was 17.3 µM (inactive). The GI50 with 786-0 is 23.6 µM (inactive); in the assay on SF-539 it was 16.7 µM (inactive); with Malme-3M it was > 100 µM (inactive); in the assay on U-251, 24.7 µM (inactive); in the assay on HT-29, > 100 µM (inactive); in the assay with SK-MEL-5 it was 30.5 µM (inactive). Further, the GI50 in the assay with MDA-MB-435 was 18.4 µM (inactive); in the assay on T47D, 51.2 µM (inactive).

Turning to `CO/C(N)=C(C#N)/N=C/c1ccccc1`, the GI50 in the assay on CCRF-CEM is 50 µM (inactive); with HCT-116 it was > 100 µM (inactive); in the assay with K562, 58.6 µM (inactive); with NCI-H226 it was > 100 µM (inactive); in the assay with SF-268, > 100 µM (inactive); in the assay with SK-OV-3 it was > 100 µM (inactive). The GI50 in the assay with OVCAR-5 was > 100 µM (inactive); in the assay on MDA-N, > 100 µM (inactive); with LOX IMVI, > 100 µM (inactive); with KM12, > 100 µM (inactive); with MCF7, 31.8 µM (inactive); in the assay with MDA-MB-231, > 100 µM (inactive). Moreover, the GI50 in the assay on 786-0 was > 100 µM (inactive); with SF-539, > 100 µM (inactive); in the assay on Malme-3M, 40.3 µM (inactive); in the assay on U-251 it was > 100 µM (inactive); in the assay on HT-29, 51.3 µM (inactive); in the assay on SK-MEL-5, > 100 µM (inactive). Also, the GI50 in the assay on MDA-MB-435 and in the assay with T47D was > 100 µM (inactive) each time.

Turning to `CN(C)CCCNc1ccnc2cccc([N+](=O)[O-])c12`, the GI50 in the assay with CCRF-CEM is 28.9 µM (inactive); in the assay on HCT-116, 13.7 µM (inactive); in the assay on K562, 29.4 µM (inactive); in the assay with NCI-H226, 15.3 µM (inactive); in the assay with SF-268, 16.4 µM (inactive); in the assay with SK-OV-3, 2.52 µM (inactive). For the same molecule, the GI50 in the assay with OVCAR-5 is 23 µM (inactive); in the assay on MDA-N it was 17.2 µM (inactive); in the assay with LOX IMVI, 13.6 µM (inactive); with KM12, 12.8 µM (inactive); in the assay with MCF7, 10.7 µM (inactive); in the assay with MDA-MB-231, 17.7 µM (inactive). The GI50 in the assay with 786-0 was 14.1 µM (inactive); in the assay on SF-539 it was 15.2 µM (inactive); with Malme-3M, 8.18 µM (inactive); in the assay on U-251, 15.7 µM (inactive); in the assay with HT-29, 12.1 µM (inactive); in the assay on SK-MEL-5 it was 10.4 µM (inactive). In addition, the GI50 with MDA-MB-435 is 15.3 µM (inactive); with T47D, 34.3 µM (inactive).

For `O=C(CCn1ccnc1[N+](=O)[O-])NCCCn1ccnc1[N+](=O)[O-]`, the GI50 in the assay on CCRF-CEM, in the assay on HCT-116, in the assay on K562, with NCI-H226, with SF-268 and in the assay with SK-OV-3 was > 100 µM (inactive) each time. The GI50 in the assay on OVCAR-5, in the assay with MDA-N, in the assay with LOX IMVI, with KM12, in the assay on MCF7 and in the assay with MDA-MB-231 was > 100 µM (inactive) throughout. In addition, the GI50 in the assay on 786-0, in the assay on SF-539, in the assay with Malme-3M, in the assay on U-251, in the assay with HT-29 and in the assay with SK-MEL-5 was > 100 µM (inactive) in each case. For the same molecule, the GI50 in the assay on MDA-MB-435 and in the assay on T47D was > 100 µM (inactive) in each case.

On to `COc1cc2ncnc(NS(=O)(=O)c3cc4ccccc4s3)c2cc1OC`, for which the GI50 with CCRF-CEM is > 100 µM (inactive); in the assay on HCT-116, > 100 µM (inactive); in the assay on K562, 56.1 µM (inactive); in the assay with NCI-H226 it was > 100 µM (inactive); with SF-268 it was > 100 µM (inactive); in the assay on SK-OV-3 it was > 100 µM (inactive). For the same molecule, the GI50 with OVCAR-5, in the assay on MDA-N, in the assay on LOX IMVI, in the assay on KM12, in the assay with MCF7 and in the assay on MDA-MB-231 was > 100 µM (inactive) each time. For the same molecule, the GI50 in the assay on 786-0, with SF-539, in the assay with Malme-3M, in the assay on U-251, in the assay on HT-29 and with SK-MEL-5 was > 100 µM (inactive) throughout. Also, the GI50 with MDA-MB-435 was > 100 µM (inactive); with T47D it was 25.2 µM (inactive).

As to `O=C1/C(=C/c2ccccc2)CCC/C1=C\c1ccc(O)c(CN2CCCCC2)c1`, the GI50 with CCRF-CEM is 3.3 µM (inactive); in the assay with HCT-116, 1.57 µM (inactive); with K562, 3.27 µM (inactive); with NCI-H226 it was 6.41 µM (inactive); in the assay on SF-268, 5.07 µM (inactive); with SK-OV-3 it was 9.1 µM (inactive). Moreover, the GI50 was 15.3 µM (inactive) with OVCAR-5; 2.56 µM (inactive) in the assay on MDA-N; 1.99 µM (inactive) with LOX IMVI; 0.933 µM (active) with KM12; 4.32 µM (inactive) with MCF7; 2.77 µM (inactive) in the assay with MDA-MB-231. The GI50 in the assay on 786-0 was 1.69 µM (inactive); with SF-539, 2.95 µM (inactive); with Malme-3M, 11.4 µM (inactive); in the assay on U-251, 3.17 µM (inactive); in the assay on HT-29, 1.77 µM (inactive); in the assay on SK-MEL-5, 2.92 µM (inactive). Moreover, the values for the GI50 in the assay with MDA-MB-435 and in the assay on T47D were 2.55 µM (inactive) and 4.88 µM (inactive), respectively.

Regarding `CN(C)CCCCN1c2ccccc2Sc2cc(N=[N+]=[N-])ccc21`, the GI50 is 2.01 µM (inactive) in the assay on CCRF-CEM; 1.78 µM (inactive) in the assay with HCT-116; 1.88 µM (inactive) with K562; 3.28 µM (inactive) in the assay on NCI-H226; 2.38 µM (inactive) with SF-268; 2.2 µM (inactive) with SK-OV-3. Also, the GI50 is 1.89 µM (inactive) in the assay with OVCAR-5; 1.72 µM (inactive) in the assay on MDA-N; 1.56 µM (inactive) in the assay on LOX IMVI; 1.73 µM (inactive) in the assay on KM12; 1.85 µM (inactive) in the assay with MCF7; 1.71 µM (inactive) in the assay on MDA-MB-231. The GI50 in the assay on 786-0 is 1.69 µM (inactive); in the assay with SF-539 it was 1.96 µM (inactive); with Malme-3M it was 1.82 µM (inactive); with U-251, 2.04 µM (inactive); in the assay with HT-29, 1.55 µM (inactive); in the assay on SK-MEL-5, 1.73 µM (inactive). Also, the GI50 is 1.67 µM (inactive) in the assay with MDA-MB-435 and 1.94 µM (inactive) in the assay on T47D.
